What was measured:
lipoamide = compound: NC(=O)CCCCC1CCSS1 [lipoamide]; test: thermal stability z-score vs DMSO; higher = more thermally stabilized by treatment; conditions: HeLa, lipoamide concentration 100 µM
Protocol: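 Cellular thermal proteome profiling in HeLa cells. Cells were treated with 100 µM lipoamide for 1 h, with or without 1 mM arsenate for a further 1 h, then heated to ten temperatures (37-66.3 °C), and soluble protein was quantified by TMT mass spectrometry relative to 0.1% DMSO controls. The thermal stability score (sum of log2 fold changes minus the abundance score) was transformed to a z-score; mean of n = 3 experiments.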

potassium arsenate = compound: O=[As]([O-])(O)O.[K+] [potassium arsenate]; test: as above; conditions: HeLa; arsenate concentration 1 mM
Protocol: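 Cellular thermal proteome profiling in HeLa cells treated with 1 mM arsenate for 1 h (DMSO pretreatment), heated to ten temperatures (37-66.3 °C). Soluble protein was quantified by TMT mass spectrometry relative to DMSO controls; the thermal stability score was transformed to a z-score; mean of n = 3 experiments.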

[1] = arsenate co-treatment: 1 mM arsenate 1 h
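Also: each temperature applied for 3 min, abundance score taken as mean log2 fold change at the two lowest temperatures, z-score obtained by mean subtraction and division by SD.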

Sequence of UniProt Q7KZI7 (Q7KZI7 whole entry): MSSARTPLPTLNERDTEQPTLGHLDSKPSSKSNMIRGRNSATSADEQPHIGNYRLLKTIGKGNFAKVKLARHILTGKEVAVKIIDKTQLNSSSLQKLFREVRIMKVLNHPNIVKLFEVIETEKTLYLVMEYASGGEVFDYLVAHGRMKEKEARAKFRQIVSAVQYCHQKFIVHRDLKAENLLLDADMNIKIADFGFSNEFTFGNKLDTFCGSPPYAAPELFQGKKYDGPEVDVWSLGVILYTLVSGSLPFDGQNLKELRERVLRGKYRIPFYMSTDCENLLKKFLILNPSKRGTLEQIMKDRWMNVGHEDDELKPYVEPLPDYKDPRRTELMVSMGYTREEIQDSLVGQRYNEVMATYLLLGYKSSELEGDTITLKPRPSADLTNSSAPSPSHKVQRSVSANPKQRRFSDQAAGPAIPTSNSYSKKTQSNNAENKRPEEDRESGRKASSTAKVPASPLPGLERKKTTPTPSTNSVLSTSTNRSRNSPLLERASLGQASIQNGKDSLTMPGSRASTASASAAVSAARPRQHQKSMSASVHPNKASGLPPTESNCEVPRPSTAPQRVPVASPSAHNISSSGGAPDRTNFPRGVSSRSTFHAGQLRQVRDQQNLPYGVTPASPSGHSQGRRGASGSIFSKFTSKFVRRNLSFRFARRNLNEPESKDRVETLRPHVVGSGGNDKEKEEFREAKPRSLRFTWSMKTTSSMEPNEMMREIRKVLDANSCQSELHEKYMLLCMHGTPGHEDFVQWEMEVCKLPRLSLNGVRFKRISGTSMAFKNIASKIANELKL
Sequence of UniProt Q9HBM0 (Q9HBM0 whole entry): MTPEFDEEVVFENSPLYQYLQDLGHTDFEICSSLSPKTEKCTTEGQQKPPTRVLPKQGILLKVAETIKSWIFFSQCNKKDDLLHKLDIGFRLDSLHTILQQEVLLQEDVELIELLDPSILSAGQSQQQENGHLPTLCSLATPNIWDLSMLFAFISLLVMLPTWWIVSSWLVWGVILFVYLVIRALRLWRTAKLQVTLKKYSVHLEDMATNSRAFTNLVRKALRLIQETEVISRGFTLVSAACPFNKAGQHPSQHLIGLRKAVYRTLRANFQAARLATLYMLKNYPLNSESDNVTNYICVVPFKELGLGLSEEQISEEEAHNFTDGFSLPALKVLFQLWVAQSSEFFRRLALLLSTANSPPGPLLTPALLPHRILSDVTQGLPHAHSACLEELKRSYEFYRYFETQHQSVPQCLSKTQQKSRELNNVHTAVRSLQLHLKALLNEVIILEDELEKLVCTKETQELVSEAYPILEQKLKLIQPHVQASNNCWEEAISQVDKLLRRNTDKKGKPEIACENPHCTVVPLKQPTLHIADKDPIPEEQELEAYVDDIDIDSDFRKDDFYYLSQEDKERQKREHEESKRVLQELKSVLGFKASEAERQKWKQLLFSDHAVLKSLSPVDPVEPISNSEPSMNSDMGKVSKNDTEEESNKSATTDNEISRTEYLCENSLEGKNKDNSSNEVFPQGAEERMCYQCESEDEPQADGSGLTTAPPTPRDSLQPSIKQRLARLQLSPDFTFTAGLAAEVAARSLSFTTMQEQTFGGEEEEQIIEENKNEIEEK
Sequence of UniProt Q7KZN9 (Q7KZN9 whole entry): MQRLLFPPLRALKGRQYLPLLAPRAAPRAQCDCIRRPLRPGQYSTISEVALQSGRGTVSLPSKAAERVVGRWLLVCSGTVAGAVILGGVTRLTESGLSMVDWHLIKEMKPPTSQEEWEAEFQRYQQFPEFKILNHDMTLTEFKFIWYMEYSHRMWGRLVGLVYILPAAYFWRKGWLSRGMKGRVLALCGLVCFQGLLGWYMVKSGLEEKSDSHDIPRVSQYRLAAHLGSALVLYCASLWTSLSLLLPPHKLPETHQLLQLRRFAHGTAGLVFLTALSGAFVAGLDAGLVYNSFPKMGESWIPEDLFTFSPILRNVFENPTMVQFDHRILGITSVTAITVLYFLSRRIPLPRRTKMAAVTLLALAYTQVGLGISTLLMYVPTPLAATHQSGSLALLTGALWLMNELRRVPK
Sequence of UniProt P51636 (P51636 whole entry): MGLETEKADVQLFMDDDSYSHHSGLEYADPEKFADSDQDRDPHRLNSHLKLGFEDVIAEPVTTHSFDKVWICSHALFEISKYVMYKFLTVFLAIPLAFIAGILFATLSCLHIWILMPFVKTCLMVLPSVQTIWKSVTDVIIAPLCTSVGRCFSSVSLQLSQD
Sequence of UniProt O43823 (O43823 whole entry): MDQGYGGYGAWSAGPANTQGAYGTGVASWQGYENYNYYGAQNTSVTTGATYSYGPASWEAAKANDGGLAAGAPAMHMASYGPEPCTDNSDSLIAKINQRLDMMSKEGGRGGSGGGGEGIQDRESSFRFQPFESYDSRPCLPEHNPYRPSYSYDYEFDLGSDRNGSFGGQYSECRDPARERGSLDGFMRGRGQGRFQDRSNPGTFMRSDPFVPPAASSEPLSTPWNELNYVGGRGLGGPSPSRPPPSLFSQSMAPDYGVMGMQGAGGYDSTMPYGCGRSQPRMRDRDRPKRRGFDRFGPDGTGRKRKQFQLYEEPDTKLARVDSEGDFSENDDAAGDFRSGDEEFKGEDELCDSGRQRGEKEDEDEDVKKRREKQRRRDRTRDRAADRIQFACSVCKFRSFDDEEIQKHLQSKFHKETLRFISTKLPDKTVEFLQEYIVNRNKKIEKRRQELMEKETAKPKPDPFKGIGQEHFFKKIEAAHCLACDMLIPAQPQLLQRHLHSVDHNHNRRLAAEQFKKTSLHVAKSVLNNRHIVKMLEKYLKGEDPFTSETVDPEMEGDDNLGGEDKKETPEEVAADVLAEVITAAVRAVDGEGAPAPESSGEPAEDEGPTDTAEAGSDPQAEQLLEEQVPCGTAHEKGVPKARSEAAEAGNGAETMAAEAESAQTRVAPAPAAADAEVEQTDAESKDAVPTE
Sequence of UniProt O60547 (O60547 whole entry): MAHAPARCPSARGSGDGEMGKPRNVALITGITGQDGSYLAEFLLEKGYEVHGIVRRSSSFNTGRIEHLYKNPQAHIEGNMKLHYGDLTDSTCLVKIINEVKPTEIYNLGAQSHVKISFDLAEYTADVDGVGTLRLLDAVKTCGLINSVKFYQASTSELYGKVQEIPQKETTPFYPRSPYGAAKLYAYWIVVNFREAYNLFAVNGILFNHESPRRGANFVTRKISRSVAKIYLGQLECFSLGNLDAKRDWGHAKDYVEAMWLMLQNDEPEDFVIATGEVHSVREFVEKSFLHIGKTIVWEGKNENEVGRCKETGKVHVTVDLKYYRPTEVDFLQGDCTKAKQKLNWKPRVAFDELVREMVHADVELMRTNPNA
Sequence of UniProt O00743 (O00743 whole entry): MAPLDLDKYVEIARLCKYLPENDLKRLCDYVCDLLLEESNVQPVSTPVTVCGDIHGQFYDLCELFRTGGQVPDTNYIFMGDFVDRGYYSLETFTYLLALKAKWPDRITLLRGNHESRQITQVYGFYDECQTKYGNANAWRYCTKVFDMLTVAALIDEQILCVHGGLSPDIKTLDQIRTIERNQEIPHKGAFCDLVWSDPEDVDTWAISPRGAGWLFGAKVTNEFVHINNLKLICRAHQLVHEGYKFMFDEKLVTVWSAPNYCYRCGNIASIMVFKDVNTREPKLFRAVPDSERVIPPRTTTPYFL
Sequence of UniProt Q14457 (Q14457 whole entry): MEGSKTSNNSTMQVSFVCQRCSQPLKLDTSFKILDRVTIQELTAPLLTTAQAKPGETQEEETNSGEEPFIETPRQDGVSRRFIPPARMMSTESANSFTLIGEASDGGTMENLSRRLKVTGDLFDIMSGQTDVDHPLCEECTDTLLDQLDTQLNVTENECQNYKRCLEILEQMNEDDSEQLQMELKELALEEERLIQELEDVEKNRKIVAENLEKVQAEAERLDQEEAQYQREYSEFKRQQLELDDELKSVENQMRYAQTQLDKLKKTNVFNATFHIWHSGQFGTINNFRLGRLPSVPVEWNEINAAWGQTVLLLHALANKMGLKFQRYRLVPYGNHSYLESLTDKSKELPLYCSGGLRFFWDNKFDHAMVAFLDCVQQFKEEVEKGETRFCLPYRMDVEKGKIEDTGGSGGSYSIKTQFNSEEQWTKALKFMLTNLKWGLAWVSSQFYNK
Sequence of UniProt P55060 (P55060 whole entry): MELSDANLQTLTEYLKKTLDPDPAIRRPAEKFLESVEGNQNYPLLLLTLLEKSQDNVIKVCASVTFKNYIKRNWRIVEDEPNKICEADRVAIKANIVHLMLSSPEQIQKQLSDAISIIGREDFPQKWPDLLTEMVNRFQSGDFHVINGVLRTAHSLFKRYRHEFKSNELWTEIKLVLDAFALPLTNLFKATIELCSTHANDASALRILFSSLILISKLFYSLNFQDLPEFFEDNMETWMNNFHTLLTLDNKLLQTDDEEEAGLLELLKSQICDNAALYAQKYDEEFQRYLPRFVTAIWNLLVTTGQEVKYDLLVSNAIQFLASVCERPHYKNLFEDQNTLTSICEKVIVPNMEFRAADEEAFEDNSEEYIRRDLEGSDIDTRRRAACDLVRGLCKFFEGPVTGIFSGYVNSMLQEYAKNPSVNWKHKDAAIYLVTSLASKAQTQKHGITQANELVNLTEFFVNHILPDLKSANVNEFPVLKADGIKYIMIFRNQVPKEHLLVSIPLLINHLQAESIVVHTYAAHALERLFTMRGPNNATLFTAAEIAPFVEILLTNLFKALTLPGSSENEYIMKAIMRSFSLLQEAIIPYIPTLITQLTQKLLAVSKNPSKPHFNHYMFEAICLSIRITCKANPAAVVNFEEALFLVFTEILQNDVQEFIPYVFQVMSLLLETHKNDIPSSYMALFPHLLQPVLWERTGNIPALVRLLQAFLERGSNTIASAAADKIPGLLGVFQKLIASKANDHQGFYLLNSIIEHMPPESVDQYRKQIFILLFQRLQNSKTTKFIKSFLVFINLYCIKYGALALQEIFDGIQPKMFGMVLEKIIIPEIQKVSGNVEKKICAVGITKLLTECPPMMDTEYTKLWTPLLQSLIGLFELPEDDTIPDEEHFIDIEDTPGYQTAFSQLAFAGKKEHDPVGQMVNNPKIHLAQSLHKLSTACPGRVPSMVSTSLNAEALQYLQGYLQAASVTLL

Target	thermal stability z-score (lipoamide; [1])	thermal stability z-score (lipoamide; arsenate co-treatment: none)	thermal stability z-score (potassium arsenate)
COX11 (UniProt Q9Y6N1)	0.0437	-0.0617	0.0514
C1QBP (UniProt Q07021)	-0.549	0.0636	-1.28
DHX40 (UniProt Q8IX18)	0.111	0.0273	-0.0831
CAB39 (UniProt Q9Y376)	0.454	0.641	-0.245
TRIM24 (UniProt O15164)	0.0835	0.184	-0.334
RALGAPA1 (UniProt Q6GYQ0)	-0.102	-0.115	-2.14
GMDS (UniProt O60547)	0.538	0.00997	-0.189
TTC19 (UniProt Q6DKK2)	0.927	0.897	-1.29
TNFRSF10B (UniProt O14763)	-0.753	-0.414	0.582
CRYBG3 (UniProt Q68DQ2)	-0.828	0.00468	-0.00726
KDM3A (UniProt Q9Y4C1)	0.00835	-0.0932	-0.0481
NAE1 (UniProt Q13564)	-0.406	-0.333	-0.18
VEZT (UniProt Q9HBM0)	-0.758	-0.707	-0.349
SLC38A7 (UniProt Q9NVC3)	-0.543	-0.964	-0.442
CNBP (UniProt P62633)	0.317	0.142	-0.088
PPP6C (UniProt O00743)	0.512	0.089	-0.409
NLRX1 (UniProt Q86UT6)	0.128	0.211	-0.0617
MKI67 (UniProt P46013)	1.7	1.37	0.155
CTPS1 (UniProt P17812)	-0.159	-0.286	-0.228
CAV2 (UniProt P51636)	1.26	-0.268	1.51
UGDH (UniProt O60701)	-0.0997	0.267	1.03
ZBTB7A (UniProt O95365)	0.428	-0.495	-1.13
AKAP8 (UniProt O43823)	0.701	-0.426	-0.946
SNAPC1 (UniProt Q16533)	-0.175	-0.207	0.0437
SOCS6 (UniProt O14544)	0.0176	0.0429	0.053
AIP (UniProt O00170)	-0.0398	-0.833	-2.08
PPIA (UniProt P62937)	0.27	0.693	-0.295
NGRN (UniProt Q9NPE2)	0.637	0.0666	-0.378

Target	thermal stability z-score (lipoamide; [1])	thermal stability z-score (lipoamide; arsenate co-treatment: none)	thermal stability z-score (potassium arsenate)
ETFDH (UniProt Q16134)	0.283	0.37	-0.886
MVB12A (UniProt Q96EY5)	0.652	-0.0184	0.35
WDR33 (UniProt Q9C0J8)	0.0589	-0.0858	-0.105
PSMC3 (UniProt P17980)	-0.262	-0.0444	-0.44
CENPF (UniProt P49454)	0.439	-0.0287	1.73
MCC (UniProt P23508)	-0.1	-0.0517	-0.0394
MARK2 (UniProt Q7KZI7)	-0.0322	0.0698	0.0503
CCDC85C (UniProt A6NKD9)	0.0231	0.186	-0.0463
MRPS24 (UniProt Q96EL2)	-0.239	-0.0199	-0.497
FSCN1 (UniProt Q16658)	0.0281	-0.236	-1.09
TRAPPC5 (UniProt Q8IUR0)	1.28	-0.246	0.00376
C4BPB (UniProt P20851)	-5.06	-5.39	0.18
MSMO1 (UniProt Q15800)	-1.28	-1.47	0.343
TXNL1 (UniProt O43396)	-0.206	-0.576	7
PRKAR2A (UniProt P13861)	0.114	0.239	0.904
BECN1 (UniProt Q14457)	-0.39	-0.238	-0.408
MPP1 (UniProt Q00013)	-0.0663	-0.0569	-0.163
FHL3 (UniProt Q13643)	0.648	-0.254	-3.01
COX15 (UniProt Q7KZN9)	-0.206	-0.206	0.257
HMGCL (UniProt P35914)	1.01	0.651	5.41
ASMTL (UniProt O95671)	1.09	1.31	-0.959
CSE1L (UniProt P55060)	0.582	0.825	0.016
SH3PXD2A (UniProt Q5TCZ1)	-0.325	-1.05	0.207
ZNF629 (UniProt Q9UEG4)	0.162	-0.369	-0.114
HN1L	0.978	0.827	0.214
EPB41L1 (UniProt Q9H4G0)	-0.509	-0.127	0.139
CCDC94 (UniProt Q9BW85)	-0.377	-0.352	-0.951

— the supplement of paper PMC12463676, “Small-molecule dissolution of stress granules by redox modulation benefits ALS models” (Nature Chemical Biology, 2025)
